# Assays:
# [1] = tested on: cell line resistant to the ALK inhibitor; test: Evaluation of antitumor efficacy of statin-based drugs; details: cell line resistant to the ALK inhibitor versus parental
# From the text: The results are illustrated in FIG. 4A.
# H3122 parental cells = test: FDA approved drug library growth inhibition selection, parental cells; assay type: cell-based; details: 1 μM for 72 hours
# H3122 CR pool cells = test: FDA approved drug library growth inhibition selection, resistant cells; assay type: cell-based; details: 1 μM for 72 hours
# [2] = tested on: CR pool, CR #1, and CR #3 cell lines; test: Cell proliferation after adding mevalonate pathway byproducts to cerivastatin-treated cells; assay type: cell-based; details: CR #1, CR #3, byproduct added after cerivastatin treatment
# From the text: A statin-based drug is a suppressor of HMG-CoA reductase which is an enzyme converting 3-hydroxy-3-methylglutaryl coenzyme A (HMG-CoA) into mevalonic acid in the mevalonate pathway, and is known as a cholesterol-lowering agent, but is known to affect various intracellular signaling processes by suppressing the production of isoprenoids (Farnesyl pyrophosphate; […] GGPP) acting as a substrate for isoprenylation of a target protein among final byproducts of the mevalonate pathway in addition to cholesterol. Thus, after the present research team treated H3122 parental, CR pool, CR #1, and CR #3 cell lines with cerivastatin in order to see which one of the byproducts mediated by the mevalonate pathway is involved in acquiring resistance to an ALK inhibitor, the proliferation of cells was identified after mevalonate, GGPP, FPP, and squalene, which are byproducts of each step, were each added. The results are illustrated in FIG. 6A.
# [3] = tested on: p21, cleaved caspase 3, PARP, YAP; test: Western blot of p21, cleaved caspase 3, PARP and YAP, ceritinib-resistant cell line; assay type: cell-based; details: cell line resistant to ceritinib
# YAP = test: Western blot of YAP phosphorylation, crizotinib-resistant cell line; assay type: cell-based
# From the text: YAP is accumulated in the nucleus to form a complex with TEAD when phosphorylation is suppressed, and is known as an oncogene which promotes the excessive proliferation of cancer cells and the metastasis of cancer by inducing the expression of a gene associated with cancer. In addition, YAP as a transcription factor has been reported to be involved even in the expression of EGFR and an EGFR ligand. Recently, it has been reported that the mevalonate pathway which is an important mechanism in cancer cell metabolism regulates YAP activity, and particularly, geranylgeranylation may directly affect YAP activity. […] The results are illustrated in FIG. 7. FIGS. 7A and 7B identify the expression pattern of YAP when GGPP and […] are treated, respectively through a western blot, and FIG. 7C illustrates whether YAP moves into the nucleus through an immunocytochemistry analysis.
# [4] = tested on: p21, cleaved PARP, and cleaved caspase 3; test: Western blot of p21 and apoptosis-related proteins, crizotinib-resistant cell lines; assay type: cell-based
# vimentin = test: Western blot of vimentin expression; assay type: cell-based; details: cell lines resistant to an ALK inhibitor
# From the text: The results are illustrated in FIG. 13.
# EGFR = test: Western blot of EGFR activity after verteporfin; assay type: cell-based; details: cell line that has acquired resistance to an ALK inhibitor; pretreatment with verteporfin
# From the text: The results are illustrated in FIG. 12.
# [5] = tested on: cell line that has acquired resistance to crizotinib; test: Cell survival rate of cell line that has acquired resistance to crizotinib after ALK/EGFR inhibitor treatment; assay type: cell-based; details: crizotinib-resistant H3122 cell line
# Procedure: Subsequently, studies on the mechanism of acquiring resistance to an ALK inhibitor in the Experimental Examples were carried out by representatively using CR pool, CR #1, and CR #3.
# AKT and ERK = test: Immunoblot of lower and bypass signaling pathway of ALK, ceritinib-resistant cell line; assay type: cell-based; details: cell line resistant to ceritinib
# [6] = added to cerivastatin-treated cells
molecule,measurement,setting,value
CC(C)c1nc(N(C)S(C)(=O)=O)nc(-c2ccc(F)cc2)c1/C=C/[C@@H](O)C[C@@H](O)CC(=O)O [rosuvastatin],antitumor efficacies,[1],specifically exhibited antitumor efficacies against a cell line resistant to the ALK inhibitor
COc1cccc2c1C(=O)c1c(O)c3c(c(O)c1C2=O)C[C@@](O)(C(=O)CO)C[C@@H]3O[C@H]1C[C@H](N)[C@H](O)[C@H](C)O1 [doxorubicin],growth of cells,H3122 parental cells,suppressed the growth
same,growth of cells,H3122 CR pool cells,suppressed the growth
CC(O)(CCO)CC(=O)O (stereo not shown) [mevalonate],proliferation of cells suppressed by cerivastatin,[2],restored
COC(=O)[C@H](CC(C)C)NC(=O)c1ccc(NC[C@@H](N)CS)cc1-c1cccc2ccccc12 [GGTI-298],expression of PARP,[3],concentration-dependently induced
same,expression of p21,[3],concentration-dependently induced
same,phosphorylation of YAP,"YAP; western blot, agent alone",increasing
same,expression of cleaved PARP,"[4]; western blot, agent alone",concentration dependently induced
same,expression of cleaved caspase 3,"[4]; western blot, agent alone",concentration dependently induced
same,expression of p21,"[4]; western blot, agent alone",concentration dependently induced
"CC(C)=CCC/C(C)=C/CC/C(C)=C/COP(=O)(O)OP(=O)(O)O [FPP, Farnesyl pyrophosphate]",proliferation of cells suppressed by cerivastatin,[2],did not have any effect
CC(C)c1c(C(=O)Nc2ccccc2)c(-c2ccccc2)c(-c2ccc(F)cc2)n1CC[C@@H](O)C[C@@H](O)CC(=O)O [atorvastatin],antitumor efficacies,[1],specifically exhibited antitumor efficacies against a cell line resistant to the ALK inhibitor
"CC(C)=CCC/C(C)=C/CC/C(C)=C/CC/C(C)=C/COP(=O)(O)OP(=O)(O)O [GGPP, Geranylgeranyl pyrophosphate]",phosphorylation of YAP,YAP; added together with cerivastatin,again reduced
same,expression of cleaved PARP increased by cerivastatin,[4]; [6],again decreased
same,expression of cleaved caspase 3 increased by cerivastatin,[4]; [6],again decreased
same,expression of p21 increased by cerivastatin,[4]; [6],again decreased
same,proliferation of cells suppressed by cerivastatin,[2],restored
CC(C)=CCC/C(C)=C/CC/C(C)=C/CC/C=C(\C)CC/C=C(\C)CCC=C(C)C [squalene],proliferation of cells suppressed by cerivastatin,[2],did not have any effect
verteporfin,expression of vimentin,vimentin,clearly decreased
same,activity of EGFR,EGFR,concentration-dependently suppressed
CC(=O)O[C@@]12CO[C@@H]1C[C@H](O)[C@@]1(C)C(=O)[C@H](O)C3=C(C)[C@@H](OC(=O)[C@H](O)[C@@H](NC(=O)OC(C)(C)C)c4ccccc4)C[C@@](O)([C@@H](OC(=O)c4ccccc4)[C@H]21)C3(C)C [docetaxel],growth of cells,H3122 parental cells,suppressed the growth
same,growth of cells,H3122 CR pool cells,suppressed the growth
Cc1cc(Nc2ncc(Cl)c(Nc3ccccc3S(=O)(=O)C(C)C)n2)c(OC(C)C)cc1C1CCNCC1 [ceritinib],proliferation of the cell line that had acquired resistance (cell survival rate),[5],not suppressed
same,activity of AKT,AKT and ERK,not suppressed
same,activity of ERK,AKT and ERK,not suppressed
